How the values were obtained:
[1] = target: T1, 5-hydroxytryptamine receptor 1D (Homo sapiens, UniProt P28221); test: GPCRScan assay: inhibition of 5-HT1D; design: radioligand conc. used [nm] 1.0 – 2.0, parental cells HEKT
[2] = target: T2, 5-hydroxytryptamine receptor 3A (Homo sapiens, UniProt P46098); test: GPCRScan assay: inhibition of 5-HT3; design: radioligand conc. used [nm] 1.0 – 2.0, parental cells HEKT
T2 sequence (P46098 whole entry): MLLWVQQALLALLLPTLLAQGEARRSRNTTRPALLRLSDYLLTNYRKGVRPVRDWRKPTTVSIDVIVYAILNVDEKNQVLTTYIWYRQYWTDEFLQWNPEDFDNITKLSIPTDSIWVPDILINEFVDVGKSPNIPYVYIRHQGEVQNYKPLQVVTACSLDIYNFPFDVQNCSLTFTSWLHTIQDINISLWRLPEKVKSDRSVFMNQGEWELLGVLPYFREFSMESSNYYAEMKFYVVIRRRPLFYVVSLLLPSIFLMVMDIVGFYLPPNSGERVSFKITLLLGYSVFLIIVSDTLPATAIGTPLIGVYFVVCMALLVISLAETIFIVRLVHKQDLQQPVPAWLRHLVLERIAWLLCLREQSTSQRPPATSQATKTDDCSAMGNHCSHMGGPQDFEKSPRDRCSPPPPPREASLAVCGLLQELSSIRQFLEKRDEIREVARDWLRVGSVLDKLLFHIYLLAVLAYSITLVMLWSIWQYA

[3] = target: T3, 5-hydroxytryptamine receptor 6 (Homo sapiens, UniProt P50406); test: GPCRScan assay: inhibition of 5-HT6; design: radioligand conc. used [nm] 2.0 – 4.0, parental cells stable HEK
[4] = target: Alpha-1B adrenergic receptor (Homo sapiens, UniProt P35368); test: GPCRScan assay: inhibition of Alpha1B; design: radioligand conc. used [nm] 0.3 – 1.0, parental cells stable HEK
[5] = target: T4, Sigma intracellular receptor 2 (Homo sapiens, UniProt Q5BJF2); test: GPCRScan assay: inhibition of Sigma 2; design: radioligand conc. used [nm] 5.0, parental cells HEKT
[6] = target: T5, Mas-related G-protein coupled receptor member X2 (Homo sapiens, UniProt Q96LB1); test: PRESTO-Tango concentration response assay
[7] = target: T5, Mas-related G-protein coupled receptor member X2; test: FLIPR assay
[8] = target: 5-hydroxytryptamine receptor 1A (Homo sapiens) (UniProt P08908); settings: Compound concentration 10.0 uM
[9] = target: T6, 5-hydroxytryptamine receptor 1B (Homo sapiens, UniProt P28222); settings: Compound concentration 10.0 uM
[10] = target: T1, 5-hydroxytryptamine receptor 1D; settings: Compound concentration 10.0 uM
[11] = target: 5-hydroxytryptamine receptor 2A (Homo sapiens) (UniProt P28223); settings: Compound concentration 10.0 uM
[12] = target: 5-hydroxytryptamine receptor 2B (Homo sapiens) (UniProt P41595); settings: Compound concentration 10.0 uM
[13] = target: 5-hydroxytryptamine receptor 2C (Homo sapiens) (UniProt P28335); settings: Compound concentration 10.0 uM
[14] = target: 5-hydroxytryptamine receptor 3A (Homo sapiens) (UniProt P46098); settings: Compound concentration 10.0 uM
[15] = target: 5-hydroxytryptamine receptor 5A (Homo sapiens) (UniProt P47898); settings: Compound concentration 10.0 uM
[16] = target: T3, 5-hydroxytryptamine receptor 6; settings: Compound concentration 10.0 uM
[17] = target: 5-hydroxytryptamine receptor 7 (Homo sapiens) (UniProt P34969); settings: Compound concentration 10.0 uM
D(2) dopamine receptor [18] = target: T7, D(2) dopamine receptor (Homo sapiens, UniProt P14416); settings: Compound concentration 10.0 uM
[19] = target: D(3) dopamine receptor (Homo sapiens) (UniProt P35462); settings: Compound concentration 10.0 uM
[20] = target: D(4) dopamine receptor (Homo sapiens) (UniProt P21917); settings: Compound concentration 10.0 uM
[21] = target: D(1B) dopamine receptor (Homo sapiens) (UniProt P21918); settings: Compound concentration 10.0 uM
[22] = target: Sodium-dependent serotonin transporter (Homo sapiens) (UniProt P31645); settings: Compound concentration 10.0 uM
[23] = target: Sodium-dependent noradrenaline transporter (Homo sapiens) (UniProt P23975); settings: Compound concentration 10.0 uM
[24] = target: T8, Sodium-dependent dopamine transporter (Homo sapiens, UniProt Q01959); settings: Compound concentration 10.0 uM
[25] = target: Mu-type opioid receptor (Homo sapiens) (UniProt P35372); settings: Compound concentration 10.0 uM
[26] = target: Delta-type opioid receptor (Homo sapiens) (UniProt P41143); settings: Compound concentration 10.0 uM
[27] = target: Kappa-type opioid receptor (Homo sapiens) (UniProt P41145); settings: Compound concentration 10.0 uM
[28] = target: Histamine H1 receptor (Homo sapiens) (UniProt P35367); settings: Compound concentration 10.0 uM
[29] = target: Histamine H2 receptor (Homo sapiens) (UniProt P25021); settings: Compound concentration 10.0 uM
[30] = target: Histamine H3 receptor (Homo sapiens) (UniProt Q9Y5N1); settings: Compound concentration 10.0 uM
[31] = target: Histamine H4 receptor (Homo sapiens) (UniProt Q9H3N8); settings: Compound concentration 10.0 uM
[32] = target: Alpha-1A adrenergic receptor (Homo sapiens) (UniProt P35348); settings: Compound concentration 10.0 uM
[33] = target: Alpha-1B adrenergic receptor (Homo sapiens) (UniProt P35368); settings: Compound concentration 10.0 uM
[34] = target: Alpha-2A adrenergic receptor (Homo sapiens) (UniProt P08913); settings: Compound concentration 10.0 uM
[35] = target: Alpha-2B adrenergic receptor (Homo sapiens) (UniProt P18089); settings: Compound concentration 10.0 uM
[36] = target: Alpha-2C adrenergic receptor (Homo sapiens) (UniProt P18825); settings: Compound concentration 10.0 uM
[37] = target: Beta-1 adrenergic receptor (Homo sapiens) (UniProt P08588); settings: Compound concentration 10.0 uM
[38] = target: Beta-2 adrenergic receptor (Homo sapiens) (UniProt P07550); settings: Compound concentration 10.0 uM
[39] = target: Muscarinic acetylcholine receptor M1 (Homo sapiens) (UniProt P11229); settings: Compound concentration 10.0 uM
[40] = target: Muscarinic acetylcholine receptor M2 (Homo sapiens) (UniProt P08172); settings: Compound concentration 10.0 uM
[41] = target: Muscarinic acetylcholine receptor M3 (Homo sapiens) (UniProt P20309); settings: Compound concentration 10.0 uM
[42] = target: Muscarinic acetylcholine receptor M4 (Homo sapiens) (UniProt P08173); settings: Compound concentration 10.0 uM
[43] = target: Muscarinic acetylcholine receptor M5 (Homo sapiens) (UniProt P08912); settings: Compound concentration 10.0 uM
[44] = target: Beta-3 adrenergic receptor (Homo sapiens) (UniProt P13945); settings: Compound concentration 10.0 uM
[45] = target: T9, GABA-A receptor; anion channel (Rattus norvegicus) (UniProt O09028+P15431+P18506+P18508+P19969+P20236+P23574+P23576+P28471+P28473+P30191+P62813+P63079+P63138+Q91ZM7+Q9ES14); settings: Compound concentration 10.0 uM
Rattus norvegicus = species: Rattus norvegicus; settings: Compound concentration 10.0 uM
[46] = target: Alpha-1D adrenergic receptor (Homo sapiens) (UniProt P25100); settings: Compound concentration 10.0 uM
[47] = target: T4, Sigma intracellular receptor 2; settings: Compound concentration 10.0 uM
[48] = target: Sigma non-opioid intracellular receptor 1 (Homo sapiens) (UniProt Q99720); settings: Compound concentration 10.0 uM
[49] = target: 5-hydroxytryptamine receptor 1A (Homo sapiens, UniProt P08908); test: GPCRScan assay: inhibition of 5-HT1A; design: radioligand conc. used [nm] 0.5 – 1.0, parental cells stable CHO
[50] = target: T6, 5-hydroxytryptamine receptor 1B; test: GPCRScan assay: inhibition of 5-HT1B; design: radioligand conc. used [nm] 0.6 – 1.5, parental cells stable HEK
D(2) dopamine receptor [51] = target: T7, D(2) dopamine receptor; test: GPCRScan assay: inhibition of D2; design: radioligand conc. used [nm] 0.4 – 1.0, parental cells stable fibroblast
[52] = target: T8, Sodium-dependent dopamine transporter; test: GPCRScan assay: inhibition of DAT; design: radioligand conc. used [nm] 3.6 – 16.0, parental cells stable HEK
[53] = target: GABA-A receptor; anion channel; test: GPCRScan assay: inhibition of GABAA/BZP; assay type: protein-complex assay, Rattus norvegicus; design: radioligand conc. used [nm] 0.6 – 4.0, parental cells brain tissue
[54] = target: 5-hydroxytryptamine receptor 1E (Homo sapiens) (UniProt P28566); settings: Compound concentration 10.0 uM
[55] = target: D(1A) dopamine receptor (Homo sapiens) (UniProt P21728); settings: Compound concentration 10.0 uM
[56] = target: T9, GABA-A receptor; anion channel (Rattus norvegicus); settings: Compound concentration 10.0 uM; remark: listed apart in the source

T4 sequence (Q5BJF2 whole entry): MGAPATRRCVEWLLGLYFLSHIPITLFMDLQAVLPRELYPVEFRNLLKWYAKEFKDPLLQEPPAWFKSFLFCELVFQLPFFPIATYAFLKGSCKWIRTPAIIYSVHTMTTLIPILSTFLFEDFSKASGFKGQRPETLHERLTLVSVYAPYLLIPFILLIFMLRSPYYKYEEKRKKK
T8 sequence (Q01959 whole entry): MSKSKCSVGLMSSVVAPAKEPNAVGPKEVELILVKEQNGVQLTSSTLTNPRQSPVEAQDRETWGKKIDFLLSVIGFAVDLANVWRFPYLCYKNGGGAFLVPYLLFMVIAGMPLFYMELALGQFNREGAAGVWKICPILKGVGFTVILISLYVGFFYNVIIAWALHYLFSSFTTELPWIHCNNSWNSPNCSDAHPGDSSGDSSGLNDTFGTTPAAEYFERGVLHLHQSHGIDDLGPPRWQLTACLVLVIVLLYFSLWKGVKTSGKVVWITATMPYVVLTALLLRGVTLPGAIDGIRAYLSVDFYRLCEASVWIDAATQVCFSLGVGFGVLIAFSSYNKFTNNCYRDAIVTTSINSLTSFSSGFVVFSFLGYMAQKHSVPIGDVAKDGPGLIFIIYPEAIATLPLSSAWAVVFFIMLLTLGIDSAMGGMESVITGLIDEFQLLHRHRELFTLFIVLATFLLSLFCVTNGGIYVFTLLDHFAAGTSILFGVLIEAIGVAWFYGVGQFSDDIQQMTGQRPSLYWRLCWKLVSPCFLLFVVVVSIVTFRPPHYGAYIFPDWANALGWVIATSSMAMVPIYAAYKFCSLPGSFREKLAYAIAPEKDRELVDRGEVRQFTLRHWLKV
T6 sequence (P28222 whole entry): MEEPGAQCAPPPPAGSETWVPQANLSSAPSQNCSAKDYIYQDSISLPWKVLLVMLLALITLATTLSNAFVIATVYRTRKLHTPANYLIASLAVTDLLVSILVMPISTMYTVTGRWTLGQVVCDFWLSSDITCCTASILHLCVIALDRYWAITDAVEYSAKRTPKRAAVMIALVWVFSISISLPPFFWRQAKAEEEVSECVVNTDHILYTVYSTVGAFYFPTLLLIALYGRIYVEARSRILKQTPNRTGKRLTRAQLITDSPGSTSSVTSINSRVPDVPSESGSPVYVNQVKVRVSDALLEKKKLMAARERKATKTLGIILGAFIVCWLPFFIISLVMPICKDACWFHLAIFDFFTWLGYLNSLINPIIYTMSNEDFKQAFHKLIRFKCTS
T3 sequence (P50406 whole entry): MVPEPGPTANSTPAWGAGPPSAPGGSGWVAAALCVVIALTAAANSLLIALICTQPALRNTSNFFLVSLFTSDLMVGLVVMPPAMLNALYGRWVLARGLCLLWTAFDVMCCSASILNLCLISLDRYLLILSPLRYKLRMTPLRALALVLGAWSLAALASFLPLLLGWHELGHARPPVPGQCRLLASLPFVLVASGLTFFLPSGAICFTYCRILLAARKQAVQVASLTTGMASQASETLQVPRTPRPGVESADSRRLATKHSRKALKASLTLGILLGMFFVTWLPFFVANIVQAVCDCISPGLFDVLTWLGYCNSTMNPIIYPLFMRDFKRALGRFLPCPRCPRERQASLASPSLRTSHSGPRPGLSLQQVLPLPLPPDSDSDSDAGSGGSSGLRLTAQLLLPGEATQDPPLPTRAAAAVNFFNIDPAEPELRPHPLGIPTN
T7 sequence (P14416 whole entry): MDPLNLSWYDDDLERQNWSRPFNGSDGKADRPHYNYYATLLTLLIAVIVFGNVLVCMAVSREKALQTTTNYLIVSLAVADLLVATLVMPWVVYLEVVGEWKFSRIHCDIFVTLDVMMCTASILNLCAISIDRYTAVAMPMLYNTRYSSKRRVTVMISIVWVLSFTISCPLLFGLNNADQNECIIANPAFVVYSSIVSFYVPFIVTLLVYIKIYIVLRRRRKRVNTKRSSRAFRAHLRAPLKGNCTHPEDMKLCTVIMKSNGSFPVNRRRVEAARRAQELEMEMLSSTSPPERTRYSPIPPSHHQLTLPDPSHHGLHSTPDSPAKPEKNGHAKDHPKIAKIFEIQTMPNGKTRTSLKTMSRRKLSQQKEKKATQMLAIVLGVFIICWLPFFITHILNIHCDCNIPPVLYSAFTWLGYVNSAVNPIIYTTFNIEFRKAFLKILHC
T1 sequence (P28221 whole entry): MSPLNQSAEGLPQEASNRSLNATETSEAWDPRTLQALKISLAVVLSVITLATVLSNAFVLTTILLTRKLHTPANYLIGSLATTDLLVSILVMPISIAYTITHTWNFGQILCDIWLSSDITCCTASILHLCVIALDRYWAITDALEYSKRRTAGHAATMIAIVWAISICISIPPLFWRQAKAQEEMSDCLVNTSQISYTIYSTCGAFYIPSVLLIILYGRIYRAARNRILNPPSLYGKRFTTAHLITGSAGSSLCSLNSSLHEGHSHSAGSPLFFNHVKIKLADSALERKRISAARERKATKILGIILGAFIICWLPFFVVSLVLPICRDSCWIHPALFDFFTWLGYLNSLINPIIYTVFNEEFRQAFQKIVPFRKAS
Chain of Muscarinic acetylcholine receptor M3 (Homo sapiens) (P20309 whole entry, looked up): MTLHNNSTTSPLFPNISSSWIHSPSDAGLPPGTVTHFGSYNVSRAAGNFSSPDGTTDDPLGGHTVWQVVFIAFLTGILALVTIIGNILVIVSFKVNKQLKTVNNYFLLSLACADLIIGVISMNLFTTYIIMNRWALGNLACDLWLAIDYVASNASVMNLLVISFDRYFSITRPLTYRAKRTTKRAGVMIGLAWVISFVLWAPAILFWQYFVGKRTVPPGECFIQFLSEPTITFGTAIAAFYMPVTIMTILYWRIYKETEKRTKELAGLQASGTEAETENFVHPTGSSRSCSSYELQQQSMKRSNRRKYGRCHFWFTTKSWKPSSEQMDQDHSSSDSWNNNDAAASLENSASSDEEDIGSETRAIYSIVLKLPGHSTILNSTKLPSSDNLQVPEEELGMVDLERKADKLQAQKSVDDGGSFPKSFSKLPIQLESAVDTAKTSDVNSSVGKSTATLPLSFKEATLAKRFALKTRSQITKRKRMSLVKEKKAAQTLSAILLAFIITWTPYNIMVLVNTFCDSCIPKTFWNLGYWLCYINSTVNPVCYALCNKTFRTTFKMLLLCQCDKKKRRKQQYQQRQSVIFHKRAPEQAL
T5 sequence (Q96LB1 whole entry): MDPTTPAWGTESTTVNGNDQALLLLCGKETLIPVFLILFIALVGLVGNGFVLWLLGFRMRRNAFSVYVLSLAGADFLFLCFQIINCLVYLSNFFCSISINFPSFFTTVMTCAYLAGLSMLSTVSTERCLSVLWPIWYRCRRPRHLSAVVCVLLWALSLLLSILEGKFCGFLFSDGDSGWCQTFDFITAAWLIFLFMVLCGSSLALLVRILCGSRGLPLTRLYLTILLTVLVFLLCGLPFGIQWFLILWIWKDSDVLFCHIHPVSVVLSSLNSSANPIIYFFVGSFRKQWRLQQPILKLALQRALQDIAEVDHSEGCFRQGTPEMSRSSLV
Chain of Alpha-1A adrenergic receptor (Homo sapiens) (P35348 whole entry): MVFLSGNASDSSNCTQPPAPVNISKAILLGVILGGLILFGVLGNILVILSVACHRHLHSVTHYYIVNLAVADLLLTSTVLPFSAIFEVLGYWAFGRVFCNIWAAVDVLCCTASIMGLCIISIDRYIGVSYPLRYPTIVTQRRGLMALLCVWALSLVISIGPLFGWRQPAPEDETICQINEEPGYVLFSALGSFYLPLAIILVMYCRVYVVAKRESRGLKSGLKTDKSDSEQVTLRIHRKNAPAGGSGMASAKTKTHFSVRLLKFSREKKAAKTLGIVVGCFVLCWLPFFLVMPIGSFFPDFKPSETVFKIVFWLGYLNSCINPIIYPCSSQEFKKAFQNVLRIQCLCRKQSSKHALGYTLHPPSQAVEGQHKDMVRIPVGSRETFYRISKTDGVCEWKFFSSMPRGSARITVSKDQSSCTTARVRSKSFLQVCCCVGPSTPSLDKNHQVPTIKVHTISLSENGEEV
Chain of Alpha-2B adrenergic receptor (Homo sapiens) (P18089 whole entry): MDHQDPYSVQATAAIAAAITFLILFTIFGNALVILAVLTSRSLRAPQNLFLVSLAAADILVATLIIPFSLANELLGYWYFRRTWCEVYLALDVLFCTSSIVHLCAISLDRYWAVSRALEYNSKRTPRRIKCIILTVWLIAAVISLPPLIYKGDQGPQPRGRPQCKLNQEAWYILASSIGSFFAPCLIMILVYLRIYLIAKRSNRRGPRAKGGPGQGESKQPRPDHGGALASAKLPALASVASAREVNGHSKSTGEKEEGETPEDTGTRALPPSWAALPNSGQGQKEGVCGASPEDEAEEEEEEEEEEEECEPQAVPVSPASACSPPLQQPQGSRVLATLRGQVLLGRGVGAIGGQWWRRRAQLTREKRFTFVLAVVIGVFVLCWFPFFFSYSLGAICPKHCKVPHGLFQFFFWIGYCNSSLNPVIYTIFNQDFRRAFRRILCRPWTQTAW
Chain of Sigma non-opioid intracellular receptor 1 (Homo sapiens) (Q99720 whole entry): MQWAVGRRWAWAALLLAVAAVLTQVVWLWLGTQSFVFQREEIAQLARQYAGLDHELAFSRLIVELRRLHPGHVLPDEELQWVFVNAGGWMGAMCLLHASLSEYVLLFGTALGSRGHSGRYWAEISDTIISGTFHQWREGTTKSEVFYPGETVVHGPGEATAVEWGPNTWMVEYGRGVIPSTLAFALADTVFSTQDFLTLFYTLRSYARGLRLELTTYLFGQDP
Chain of Histamine H2 receptor (Homo sapiens) (P25021 whole entry): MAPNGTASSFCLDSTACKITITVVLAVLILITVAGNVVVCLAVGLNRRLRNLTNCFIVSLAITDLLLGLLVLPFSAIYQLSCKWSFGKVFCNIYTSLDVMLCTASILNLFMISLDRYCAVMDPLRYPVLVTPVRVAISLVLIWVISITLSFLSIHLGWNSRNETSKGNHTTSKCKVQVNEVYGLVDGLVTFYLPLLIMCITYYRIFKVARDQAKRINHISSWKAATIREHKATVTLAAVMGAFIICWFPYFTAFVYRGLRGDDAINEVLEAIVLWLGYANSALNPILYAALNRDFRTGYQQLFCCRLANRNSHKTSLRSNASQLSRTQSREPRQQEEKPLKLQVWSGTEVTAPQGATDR

CN(C)[C@H]1CCN(c2cc(-c3ccccc3)nc3ccnn23)C1 [(S)-ZINC-3573]
> 100 µM (not active): EC50 [6] | EC50 [7]
973 nM: Ki ([5]; read-out: Ki)
2110 nM: Ki ([4]; read-out: pKi (converted))
1080 nM: Ki ([3]; read-out: pKi (converted))
2290 nM: Ki ([4]; read-out: Ki)
2960 nM: Ki ([1]; read-out: Ki)
inactive: inhibition [8] 19.3% | inhibition [9] 4.88% | inhibition [11] 23.5% | inhibition [12] 33.3% | inhibition [13] -3.16% | inhibition [15] 5.42% | inhibition [17] 7.57% | inhibition (D(2) dopamine receptor [18]) 2.85% | inhibition [19] 39% | inhibition [20] 8.3% | inhibition [21] 3.36% | inhibition [22] 2.83% | inhibition [23] 2.02% | inhibition [24] -1.89% | inhibition [25] 9.07% | inhibition [26] 2.89% | inhibition [27] 6.22% | inhibition [28] 16.4% | inhibition [29] 30% | inhibition [30] 13.4% | inhibition [31] 12.4% | inhibition [32] 34.2% | inhibition [34] 40.2% | inhibition [35] 9.93% | inhibition [36] 16.4% | inhibition [37] 4.16% | inhibition [38] 27.4% | inhibition [39] 42.8% | inhibition [40] 26.6% | inhibition [41] 29.4% | inhibition [42] 34.4% | inhibition [43] 40.4% | inhibition [44] 18.9% | inhibition [45] 21.5% | inhibition (Rattus norvegicus) 2.83% | inhibition [46] 33.5% | inhibition [48] 22%
active: inhibition [10] 63.2% | inhibition [14] 64.5% | inhibition [16] 69.1% | inhibition [33] 59.1% | inhibition [47] 65.1%
2880 nM: Ki ([1]; read-out: pKi (converted))
1090 nM: Ki ([3]; read-out: Ki)
3.55 µM: Ki ([2]; read-out: pKi (converted))
3.63 µM: Ki ([2]; read-out: Ki)

CN(C)[C@@H]1CCN(c2cc(-c3ccccc3)nc3ccnn23)C1 [(R)-ZINC-3573]
1940 nM: Ki [53]
active: inhibition [8] 64.8% | inhibition [9] 52.5% | inhibition [10] 58.4% | inhibition [14] 76.6% | inhibition [16] 58.9% | inhibition (D(2) dopamine receptor [18]) 69.8% | inhibition [24] 74.3% | inhibition [45] 54.9% | inhibition [47] 82.4%
479 nM: Ki ([5]; read-out: pKi (converted))
489 nM: Ki ([5]; read-out: Ki)
inactive: inhibition [54] 7.26% | inhibition [11] 16.3% | inhibition [12] 16.7% | inhibition [13] 2.22% | inhibition [15] 13.8% | inhibition [17] 12.3% | inhibition [55] 38.9% | inhibition [19] 28.1% | inhibition [20] 32.6% | inhibition [21] 6.36% | inhibition [22] 4.09% | inhibition [23] 45.4% | inhibition [25] 21.3% | inhibition [26] 34.3% | inhibition [27] 13.6% | inhibition [56] 37.3% | inhibition [28] 39.3% | inhibition [29] 31.9% | inhibition [30] 38.6% | inhibition [31] 7.75% | inhibition [32] 21.8% | inhibition [33] 10.2% | inhibition [34] 32.9% | inhibition [35] 11.3% | inhibition [36] 40.5% | inhibition [37] 30.7% | inhibition [38] 14.4% | inhibition [39] 5.27% | inhibition [40] 20.1% | inhibition [41] 11.7% | inhibition [42] 28.8% | inhibition [43] -3.76% | inhibition [44] 12.7% | inhibition (Rattus norvegicus) 11.6% | inhibition [46] 20.4% | inhibition [48] 28.6%
1740 nM: Ki ([1]; read-out: Ki)
2.96 µM: Ki ([2]; read-out: Ki)
1110 nM: Ki ([52]; read-out: Ki)
748 nM: Ki ([3]; read-out: Ki)
369 nM: Ki (D(2) dopamine receptor [51]; read-out: Ki)
2.88 µM: Ki ([2]; read-out: pKi (converted))
1620 nM: Ki [49]
5.73: pKi [53]
1100 nM: Ki ([52]; read-out: pKi (converted))
1700 nM: Ki ([1]; read-out: pKi (converted))
3.24 µM: Ki [50]
355 nM: Ki (D(2) dopamine receptor [51]; read-out: pKi (converted))
